# Data from patent US9458135B2, “Dihydroquinoline-2-one derivatives” (Hoffmann-La Roche Inc., priority 2014, dated 2016).
# Assays:
# [1] = target: human CYP11B2 (Homo sapiens (Human), UniProt P19099); assay: G-402 cellular enzyme assay, human CYP11B2 (aldosterone release, HTRF); format: cell-based; conditions: G-402 cells expressing human CYP11B2; 1 μM Deoxycorticosterone
# Source text: (§1) Herein we identified the use of the G-402 cell line as a host cell to ectopically express (transiently or stably) enzymes of the CYP11 family. Specifically we developed stable G-402 cells expressing ectopically human CYP11B1, human CYP11B2, human CYP11A1, cynmolgus CYP11B1 or cynomolgus CYP11B2 enzyme activity. Importantly the identified cell line G-402 expresses co-factors (adrenodoxin and adrenodoxin reductase) important for the activity of the CYP11 family and no relevant enzyme activity of the CYP11 family (in comparison to H295R cells) was detected in these cells. Therefore the G-402 cell line is uniquely suited as a host cell for the ectopic expression of enzymes from the CYP11 family.
# (§2) The expression plasmids contains the ORF for either huma/cyno CYP11B1 or CYP11B2 under the control of a suitable promoter (CMV-promoter) and a suitable resistance marker (neomycin). Using standard techniques the expression plasmid is transfected into G-402 cells and these cells are then selected for expressing the given resistance markers. Individual cell-clones are then selected and assessed for displaying the desired enzymatic activity using 11-Deoxycorticosterone (Cyp11B2) or 11-Deoxycortisol (Cyp11B1) as a substrate.
# (§3) G-402 cells expressing CYP11 constructs were established as described above and maintained in McCoy's 5a Medium Modified, ATCC Catalog No. 30-2007 containing 10% FCS and 400 μg/ml G418 (Geneticin) at 37° C. under an atmosphere of 5% CO2/95% air. Cellular enzyme assays were performed in DMEM/F12 medium containing 2.5% charcoal treated FCS and appropriate concentration of substrate (0.3-10 uM 11-Deoxycorticosterone, 11-Deoxycortisol or Corticosterone). For assaying enzymatic activity, cells were plated onto 96 well plates and incubated for 16 h. An aliquot of the supernatant is then transferred and analyzed for the concentration of the expected product (Aldosterone for CYP11B2; Cortisol for CYP11B1). The concentrations of these steroids can be determined using HTRF assays from CisBio analyzing either Aldosterone or Cortisol.
# (§4) Inhibition of the release of produced steroids can be used as a measure of the respective enzyme inhibition by test compounds added during the cellular enzyme assay. The dose dependent inhibition of enzymatic activity by a compound is calculated by means of plotting added inhibitor concentrations (x-axes) vs. measured steroid/product level (y-axes). The inhibition is then calculated by fitting the following 4-parameter sigmoidal function (Morgan-Mercer-Flodin (MMF) model) to the raw data points using the least squares method:
# (§5) [formula] wherein, A is the maximum y value, B is the EC50 factor determined using XLFit, C is the minimum y value and D is the slope value.
# (§6) EC50 values for compounds claimed herein were tested with the G402-based assay system described. Cyp11B2 enzyme activity was tested in presence of 1 μM Deoxycorticosterone and variable amounts of inhibitors; Cyp11B1 enzyme activity was tested in presence of 1 μM Deoxycortisol and variable amounts of inhibitors.
# [2] = target: human CYP11B1 (Homo sapiens (Human), UniProt P15538); assay: G-402 cellular enzyme assay, human CYP11B1 (cortisol release, HTRF); format: cell-based; conditions: G-402 cells expressing human CYP11B1; 1 μM Deoxycortisol
# Chain of human CYP11B1 (P15538 25-503): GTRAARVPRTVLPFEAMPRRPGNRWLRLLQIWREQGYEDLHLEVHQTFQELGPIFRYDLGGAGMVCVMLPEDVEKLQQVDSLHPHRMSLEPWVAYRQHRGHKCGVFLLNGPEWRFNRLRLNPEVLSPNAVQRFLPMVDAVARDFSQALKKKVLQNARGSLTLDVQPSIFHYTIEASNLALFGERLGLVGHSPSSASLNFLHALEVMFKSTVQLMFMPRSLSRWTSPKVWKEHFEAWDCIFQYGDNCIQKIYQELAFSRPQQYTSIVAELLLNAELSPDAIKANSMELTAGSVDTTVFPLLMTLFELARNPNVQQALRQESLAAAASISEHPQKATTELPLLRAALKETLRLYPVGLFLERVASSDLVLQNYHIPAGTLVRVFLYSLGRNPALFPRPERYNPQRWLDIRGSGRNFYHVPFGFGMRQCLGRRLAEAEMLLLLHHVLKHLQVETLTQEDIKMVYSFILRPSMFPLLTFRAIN
# Source text: as §1, §2, §3, §4, §5, §6
# Chain of human CYP11B2 (P19099 25-503): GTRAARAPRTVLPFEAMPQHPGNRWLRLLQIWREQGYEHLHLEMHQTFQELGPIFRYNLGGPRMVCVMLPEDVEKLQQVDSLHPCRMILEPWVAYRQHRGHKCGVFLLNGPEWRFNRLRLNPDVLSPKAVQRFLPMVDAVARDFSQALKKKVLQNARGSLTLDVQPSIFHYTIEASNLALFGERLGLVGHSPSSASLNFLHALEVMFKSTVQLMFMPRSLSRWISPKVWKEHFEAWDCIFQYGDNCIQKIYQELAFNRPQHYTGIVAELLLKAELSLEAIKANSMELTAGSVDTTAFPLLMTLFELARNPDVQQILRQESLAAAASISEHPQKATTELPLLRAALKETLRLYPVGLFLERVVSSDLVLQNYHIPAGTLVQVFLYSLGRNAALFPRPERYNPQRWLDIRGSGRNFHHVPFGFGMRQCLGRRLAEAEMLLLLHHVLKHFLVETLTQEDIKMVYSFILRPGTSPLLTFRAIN
Compound,EC50 [1] [nM],EC50 [2] [nM]
"CN1C(=O)CCc2cc(-c3cncc(COc4cccc(Cl)n4)c3)ccc21 [Example 1, 6-[5-(6-Chloro-pyridin-2-yloxymethyl)-pyridin-3-yl]-1-methyl-3,4-dihydro-1H-quinolin-2-one]",0.2,9.1
"CN1C(=O)CCc2cc(-c3cncc(COc4ccc(F)cn4)c3)ccc21 [Example 2, 6-[5-(5-Fluoro-pyridin-2-yloxymethyl)-pyridin-3-yl]-1-methyl-3,4-dihydro-1H-quinolin-2-one]",0.2,6.3
"Cc1cccc(OCc2cncc(-c3ccc4c(c3)CCC(=O)N4C)c2)n1 [Example 3, 1-Methyl-6-[5-(6-methyl-pyridin-2-yloxymethyl)-pyridin-3-yl]-3,4-dihydro-1H-quinolin-2-one]",0.1,4.8
"Cc1cc(OCc2cncc(-c3ccc4c(c3)CCC(=O)N4C)c2)nc(C(F)(F)F)c1 [Example 4, 1-Methyl-6-[5-(4-methyl-6-trifluoromethyl-pyridin-2-yloxymethyl)-pyridin-3-yl]-3,4-dihydro-1H-quinolin-2-one]",0.4,3.6
"Cc1ccnc(OCc2cncc(-c3ccc4c(c3)CCC(=O)N4C)c2)c1 [Example 5, 1-Methyl-6-[5-(4-methyl-pyridin-2-yloxymethyl)-pyridin-3-yl]-3,4-dihydro-1H-quinolin-2-one]",0.1,1.7
"CN1C(=O)CCc2cc(-c3cncc(COc4ccc(Cl)cn4)c3)ccc21 [Example 6, 6-[5-(5-Chloro-pyridin-2-yloxymethyl)-pyridin-3-yl]-1-methyl-3,4-dihydro-1H-quinolin-2-one]",0.1,1.9
"CN1C(=O)CCc2cc(-c3cncc(COc4ccccn4)c3)ccc21 [Example 7, 1-Methyl-6-[5-(pyridin-2-yloxymethyl)-pyridin-3-yl]-3,4-dihydro-1H-quinolin-2-one]",0.2,8.7
"CN1C(=O)CCc2cc(-c3cncc(COc4ncccc4C(F)(F)F)c3)ccc21 [Example 8, 1-Methyl-6-[5-(3-trifluoromethyl-pyridin-2-yloxymethyl)-pyridin-3-yl]-3,4-dihydro-1H-quinolin-2-one]",2.3,72.8
"Cc1nccc(OCc2cncc(-c3ccc4c(c3)CCC(=O)N4C)c2)n1 [Example 9, 1-Methyl-6-[5-(2-methyl-pyrimidin-4-yloxymethyl)-pyridin-3-yl]-3,4-dihydro-1H-quinolin-2-one]",0.1,4.2
"CN1C(=O)CCc2cc(-c3cncc(COc4ccnc(C(F)(F)F)n4)c3)ccc21 [Example 10, 1-Methyl-6-[5-(2-trifluoromethyl-pyrimidin-4-yloxymethyl)-pyridin-3-yl]-3,4-dihydro-1H-quinolin-2-one]",0.3,12.3
"CN1C(=O)CCc2cc(-c3cncc(COc4cnc(Cl)nc4)c3)ccc21 [Example 11, 6-[5-(2-Chloro-pyrimidin-5-yloxymethyl)-pyridin-3-yl]-1-methyl-3,4-dihydro-1H-quinolin-2-one]",0.1,0.8
"CN1C(=O)CCc2cc(-c3cncc(COc4ncccn4)c3)ccc21 [Example 12, 1-Methyl-6-[5-(pyrimidin-2-yloxymethyl)-pyridin-3-yl]-3,4-dihydro-1H-quinolin-2-one]",3.6,101
"CN1C(=O)CCc2cc(-c3cncc(CSc4nc5ccccc5o4)c3)ccc21 [Example 13, 6-[5-(Benzooxazol-2-ylsulfanylmethyl)-pyridin-3-yl]-1-methyl-3,4-dihydro-1H-quinolin-2-one]",0.3,0.9
"Cc1cccc(SCc2cncc(-c3ccc4c(c3)CCC(=O)N4C)c2)n1 [Example 14, 1-Methyl-6-[5-(6-methyl-pyridin-2-ylsulfanylmethyl)-pyridin-3-yl]-3,4-dihydro-1H-quinolin-2-one]",0.012,0.1
"CN1C(=O)CCc2cc(-c3cncc(CSc4ncccc4C(F)(F)F)c3)ccc21 [Example 15, 1-Methyl-6-[5-(3-trifluoromethyl-pyridin-2-ylsulfanylmethyl)-pyridin-3-yl]-3,4-dihydro-1H-quinolin-2-one]",0.5,14.3
"CN1C(=O)CCc2cc(-c3cncc(CSc4ncccc4Cl)c3)ccc21 [Example 16, 6-[5-(3-Chloro-pyridin-2-ylsulfanylmethyl)-pyridin-3-yl]-1-methyl-3,4-dihydro-1H-quinolin-2-one]",1.4,45.7
"CN1C(=O)CCc2cc(-c3cncc(COc4cc(C#N)ccn4)c3)ccc21 [Example 17, 2-[5-(1-Methyl-2-oxo-1,2,3,4-tetrahydro-quinolin-6-yl)-pyridin-3-ylmethoxy]-isonicotinonitrile]",0.2,0.9
"CN1C(=O)CCc2cc(-c3cncc(COc4cccc(F)n4)c3)ccc21 [Example 18, 6-[5-(6-Fluoro-pyridin-2-yloxymethyl)-pyridin-3-yl]-1-methyl-3,4-dihydro-1H-quinolin-2-one]",0.3,7.5
"CN1C(=O)CCc2cc(-c3cncc(COc4ncccc4F)c3)c(F)cc21 [Example 19, 7-Fluoro-6-[5-(3-fluoro-pyridin-2-yloxymethyl)-pyridin-3-yl]-1-methyl-3,4-dihydro-1H-quinolin-2-one]",14.1,997
"CN1C(=O)CCc2cc(-c3cncc(COc4ccc(Cl)cn4)c3)c(F)cc21 [Example 20, 6-[5-(5-Chloro-pyridin-2-yloxymethyl)-pyridin-3-yl]-7-fluoro-1-methyl-3,4-dihydro-1H-quinolin-2-one]",0.1,1.6
"CN1C(=O)CCc2cc(-c3cncc(COc4cccc(Cl)n4)c3)c(F)cc21 [Example 21, 6-[5-(6-Chloro-pyridin-2-yloxymethyl)-pyridin-3-yl]-7-fluoro-1-methyl-3,4-dihydro-1H-quinolin-2-one]",0.3,16.3
"Cc1cccc(OCc2cncc(-c3cc4c(cc3F)N(C)C(=O)CC4)c2)n1 [Example 22, 7-Fluoro-1-methyl-6-[5-(6-methyl-pyridin-2-yloxymethyl)-pyridin-3-yl]-3,4-dihydro-1H-quinolin-2-one]",2,216
"Cc1ccnc(OCc2cncc(-c3cc4c(cc3F)N(C)C(=O)CC4)c2)c1 [Example 23, 7-Fluoro-1-methyl-6-[5-(4-methyl-pyridin-2-yloxymethyl)-pyridin-3-yl]-3,4-dihydro-1H-quinolin-2-one]",0.1,4.1
"Cc1cccc(OCc2cncc(-c3cc4c(cc3F)N(C)C(=O)CC4)c2C)n1 [Example 24, 7-Fluoro-1-methyl-6-[4-methyl-5-(6-methyl-pyridin-2-yloxymethyl)-pyridin-3-yl]-3,4-dihydro-1H-quinolin-2-one]",0.7,105
"Cc1c(COc2cccc(Cl)n2)cncc1-c1cc2c(cc1F)N(C)C(=O)CC2 [Example 25, 6-[5-(6-Chloro-pyridin-2-yloxymethyl)-4-methyl-pyridin-3-yl]-7-fluoro-1-methyl-3,4-dihydro-1H-quinolin-2-one]",1.3,116
"Cc1c(COc2ncccc2F)cncc1-c1cc2c(cc1F)N(C)C(=O)CC2 [Example 26, 7-Fluoro-6-[5-(3-fluoro-pyridin-2-yloxymethyl)-4-methyl-pyridin-3-yl]-1-methyl-3,4-dihydro-1H-quinolin-2-one]",5,866
"Cc1c(COc2cccc(F)n2)cncc1-c1cc2c(cc1F)N(C)C(=O)CC2 [Example 27, 7-Fluoro-6-[5-(6-fluoro-pyridin-2-yloxymethyl)-4-methyl-pyridin-3-yl]-1-methyl-3,4-dihydro-1H-quinolin-2-one]",0.2,20.8
"Cc1cccc(NC(=O)Cc2cncc(-c3ccc4c(c3)CCC(=O)N4C)c2)n1 [Example 28, 2-[5-(1-Methyl-2-oxo-1,2,3,4-tetrahydro-quinolin-6-yl)-pyridin-3-yl]-N-(6-methyl-pyridin-2-yl)-acetamide]",2.2,14.5
